Experimental data as given in patent publication US8053470B2, “Process for the preparation of polynuclear ferric hydroxide-saccaride complexes” (Chongqing Pharmaceutical Research Institute Co., Ltd., priority 2005, dated 2011).

Experiment: Isoelectric point of the iron-saccharide complex: pH at which its aqueous solution turns turbid on drop-wise addition of diluted hydrochloric acid (USP 27 iron sucrose injection method)
Assay type: physicochemical
Settings: examples described in text; Example 1 measured by method of 27th version of USP
From the text: The term “isoelectric point” herein refers to a pH value at which the aqueous solution of iron-saccharide complexes turns turbid during the drop-wise addition of a diluted hydrochloric acid solution.

Row | Substance | isoelectric point of the final product
1 | Polynuclear Ferric Hydroxide-fructose Complex [Example 11] | 5.2
2 | Polynuclear Ferric Hydroxide-sucrose Complex [Example 1] | 4.4
